Test results as given in patent US7601716B2, “Pyridopyrazines and derivatives thereof as ALK and c-Met inhibitors” (Cephalon, Inc., priority 2006, dated 2009).
pIC50: −log10 of the molar value. Where a name gives a salt, the structure may show the parent alone.

Experiments:
[1] = target: T1, c-Met (cytoplasmic domain) (Homo sapiens, UniProt P08581); assay: c-Met Kinase Assay (ELISA/TRF, PLC-γ substrate); format: biochemical; conditions: 3 μM ATP (Km level); read-out: c-Met Kinase Inhibition (IC50)
T1 construct: Reactions were initiated with 30 ng/mL c-Met (cytoplasmic domain, Invitrogen Corporation #PV3143); purchased Invitrogen Corporation PV3143
Summary of the method: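 c-Met cytoplasmic domain (30 ng/mL) phosphorylates plate-coated GST–PLC-γ for 15 min at 37 °C. Phosphotyrosine detected with Eu-labeled PT66 antibody by time-resolved fluorescence. IC50 from variable-slope sigmoidal fit of % inhibition vs log concentration.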

[2] = target: baculovirus-expressed ALK (Homo sapiens, UniProt Q9UM73); assay: ALK Kinase Assay (ELISA/TRF, PLC-γ substrate); format: biochemical; conditions: read-out: ALK Kinase Inhibition (IC50); note: 1 µM ATP (Km level)
Summary of the method: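 Plates coated with GST-PLC-γ substrate (10 µg/mL in TBS), then reaction started with 30 ng/ml baculovirus-expressed ALK, 15 min at 37 °C. Phosphotyrosine detected by Eu-labeled PT66 antibody and time-resolved fluorescence. IC50 from variable-slope sigmoidal fit of percent inhibition versus log concentration.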

T1 sequence (P08581 956-1390 limits assumed): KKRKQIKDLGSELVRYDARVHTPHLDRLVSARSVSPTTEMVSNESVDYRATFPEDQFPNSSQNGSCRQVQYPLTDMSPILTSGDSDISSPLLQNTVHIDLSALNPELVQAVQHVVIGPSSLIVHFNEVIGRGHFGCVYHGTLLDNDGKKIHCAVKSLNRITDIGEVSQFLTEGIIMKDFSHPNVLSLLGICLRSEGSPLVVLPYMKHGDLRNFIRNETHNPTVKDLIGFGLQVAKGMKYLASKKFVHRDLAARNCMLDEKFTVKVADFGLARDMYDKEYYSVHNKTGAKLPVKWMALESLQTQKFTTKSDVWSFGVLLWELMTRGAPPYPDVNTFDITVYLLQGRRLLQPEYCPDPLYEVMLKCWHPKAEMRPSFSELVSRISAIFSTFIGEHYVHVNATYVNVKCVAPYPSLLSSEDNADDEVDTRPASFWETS
Chain of baculovirus-expressed ALK (Q9UM73 19-1620): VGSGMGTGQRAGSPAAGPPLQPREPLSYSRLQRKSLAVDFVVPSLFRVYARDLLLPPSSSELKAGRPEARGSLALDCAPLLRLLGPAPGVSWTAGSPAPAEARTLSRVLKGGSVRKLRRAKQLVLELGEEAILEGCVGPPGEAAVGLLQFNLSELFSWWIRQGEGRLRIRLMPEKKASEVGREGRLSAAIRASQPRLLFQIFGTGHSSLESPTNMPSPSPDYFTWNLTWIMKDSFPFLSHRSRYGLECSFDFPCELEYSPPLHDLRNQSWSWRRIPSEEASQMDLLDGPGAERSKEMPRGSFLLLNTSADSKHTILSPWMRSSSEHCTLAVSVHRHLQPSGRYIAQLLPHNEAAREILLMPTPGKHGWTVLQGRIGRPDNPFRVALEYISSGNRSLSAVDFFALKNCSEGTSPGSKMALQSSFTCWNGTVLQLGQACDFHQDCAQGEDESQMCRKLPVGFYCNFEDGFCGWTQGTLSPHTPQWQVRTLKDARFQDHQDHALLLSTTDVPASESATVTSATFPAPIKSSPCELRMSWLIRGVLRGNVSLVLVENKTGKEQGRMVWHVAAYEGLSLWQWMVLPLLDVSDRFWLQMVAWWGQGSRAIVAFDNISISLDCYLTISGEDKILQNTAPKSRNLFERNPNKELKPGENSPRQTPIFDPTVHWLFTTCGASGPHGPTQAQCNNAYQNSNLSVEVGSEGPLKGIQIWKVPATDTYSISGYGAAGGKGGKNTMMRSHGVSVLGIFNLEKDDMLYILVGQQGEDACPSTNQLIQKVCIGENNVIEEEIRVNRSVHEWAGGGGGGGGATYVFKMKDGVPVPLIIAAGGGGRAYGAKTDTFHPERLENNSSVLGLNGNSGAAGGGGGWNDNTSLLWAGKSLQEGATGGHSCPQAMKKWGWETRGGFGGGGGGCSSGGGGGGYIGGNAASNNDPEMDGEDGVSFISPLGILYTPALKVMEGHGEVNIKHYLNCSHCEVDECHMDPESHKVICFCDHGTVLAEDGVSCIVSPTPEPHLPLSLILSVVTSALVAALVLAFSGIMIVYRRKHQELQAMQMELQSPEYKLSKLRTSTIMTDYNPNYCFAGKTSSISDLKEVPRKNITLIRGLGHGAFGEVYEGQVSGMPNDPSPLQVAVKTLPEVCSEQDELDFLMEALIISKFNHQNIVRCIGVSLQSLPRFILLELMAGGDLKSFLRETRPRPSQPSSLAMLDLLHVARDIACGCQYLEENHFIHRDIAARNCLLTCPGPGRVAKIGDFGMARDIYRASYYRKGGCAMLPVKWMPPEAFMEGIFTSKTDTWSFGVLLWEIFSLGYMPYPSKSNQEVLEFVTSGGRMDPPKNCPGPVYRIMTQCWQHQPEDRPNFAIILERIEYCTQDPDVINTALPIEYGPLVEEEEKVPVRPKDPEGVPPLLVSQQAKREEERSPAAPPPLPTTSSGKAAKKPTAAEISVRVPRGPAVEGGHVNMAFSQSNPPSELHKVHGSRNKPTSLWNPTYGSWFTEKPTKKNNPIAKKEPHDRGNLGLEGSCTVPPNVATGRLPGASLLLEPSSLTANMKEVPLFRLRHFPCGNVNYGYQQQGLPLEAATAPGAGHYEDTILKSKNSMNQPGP

pIC50 [1]	pIC50 [2]	Compound
< 4.00	< 4.00	CC(c1cc(F)c(F)cc1F)N1CCNc2ncc(-c3ccc(C(=O)N4CCN(C)CC4)cc3)cc21 (stereo not drawn) [Example 149, (4-Methylpiperazin-1-yl)-(4-{1-[1-(2,4,5-trifluorophenyl)ethyl]-1,2,3,4-tetrahydropyrido[2,3-b]pyrazin-7-yl}phenyl)methanone]
4.00 to 5.00	5.00 to 6.00	O=C(c1cnc2c(c1)N(Cc1cc(Cl)ccc1Cl)CCN2)N1CCN(c2ccc(Cl)c(Cl)c2)CC1 [Example 213, [1-(2,5-Dichlorobenzyl)-1,2,3,4-tetrahydropyrido[2,3-b]pyrazin-7-yl]-[4-(3,4-dichlorophenyl)-piperazin-1-yl]methanone]
< 4.00	5.00 to 6.00	O=C(c1cnc2c(c1)N(Cc1cc(Cl)ccc1Cl)CCN2)N1CCC2(CC1)C(=O)NCN2c1ccccc1 [Example 216, 8-[1-(2,5-Dichlorobenzyl)-1,2,3,4-tetrahydropyrido[2,3-b]pyrazine-7-carbonyl]-1-phenyl-1,3,8-triaza-spiro[4.5]decan-4-one]
4.00 to 5.00	4.00 to 5.00	O=S(=O)(c1ccccc1)N1CCNc2ncc(I)cc21 [Example 123, 1-Benzenesulfonyl-7-iodo-1,2,3,4-tetrahydropyrido[2,3-b]pyrazine]
4.00 to 5.00	4.00 to 5.00	O=C(c1cnc2c(c1)N(Cc1cc(Cl)ccc1Cl)CCN2)N1CCC(Cc2ccccc2)CC1 [Example 215, (4-Benzylpiperidin-1-yl)-[1-(2,5-dichlorobenzyl)-1,2,3,4-tetrahydropyrido[2,3-b]pyrazin-7-yl]methanone]
4.00 to 5.00	4.00 to 5.00	O=C(NCC(c1ccccc1)c1ccccc1)c1cnc2c(c1)N(Cc1cc(Cl)ccc1Cl)CCN2 [Example 226, 1-(2,5-Dichlorobenzyl)-1,2,3,4-tetrahydropyrido[2,3-b]pyrazine-7-carboxylic acid (2,2-diphenylethyl)amide]
4.00 to 5.00	4.00 to 5.00	O=C(c1cnc2c(c1)N(Cc1cc(Cl)ccc1Cl)CCN2)N1CCN(c2cccc(Cl)c2)CC1 [Example 222, [4-(3-Chlorophenyl)piperazin-1-yl]-[1-(2,5-dichlorobenzyl)-1,2,3,4-tetrahydropyrido[2,3-b]pyrazin-7-yl]methanone]
< 4.00	5.00 to 6.00	O=C(c1cnc2c(c1)N(Cc1cc(Cl)ccc1Cl)CCN2)N1CCN(c2ncnc3ccsc23)CC1 [Example 217, [1-(2,5-Dichlorobenzyl)-1,2,3,4-tetrahydropyrido[2,3-b]pyrazin-7-yl]-(4-thieno[3,2-d]pyrimidin-4-yl-piperazin-1-yl)methanone]
4.00 to 5.00	4.00 to 5.00	CN1CCN(c2ccc(-c3cnc4c(c3)C(Oc3c(F)ccc(F)c3Cl)CCN4)cn2)CC1 (stereo not drawn) [Example 273, 4-(2-Chloro-3,6-difluorophenoxy)-6-[6-(4-methylpiperazin-1-yl)pyridin-3-yl]-1,2,3,4-tetrahydro-[1,8]naphthyridine]
< 4.00	4.00 to 5.00	O=C(NCc1ccc(-c2ccccc2)cc1)c1cnc2c(c1)N(Cc1cc(Cl)ccc1Cl)CCN2 [Example 249, 1-(2,5-Dichlorobenzyl)-1,2,3,4-tetrahydropyrido[2,3-b]pyrazine-7-carboxylic acid (biphenyl-4-ylmethyl)amide]
4.00 to 5.00	5.00 to 6.00	O=C(c1cccc(-c2cnc3c(c2)N(Cc2ccccc2)C(=O)CN3)c1)N1CCCC1 [Example 20, 1-Benzyl-7-[3-(pyrrolidine-1-carbonyl)phenyl]-3,4-dihydro-1H-pyrido[2,3-b]pyrazin-2-one]
5.00 to 6.00	4.00 to 5.00	CN1CCN(C(=O)c2ccc(-c3cnc4c(c3)C(Oc3cc(Cl)cc(Cl)c3)CCN4)cc2)CC1 (stereo not drawn) [Example 275, {4-[5-(3,5-Dichlorophenoxy)-5,6,7,8-tetrahydro-[1,8]naphthyridin-3-yl]phenyl}-(4-methylpiperazin-1-yl)methanone]
< 4.00	4.00 to 5.00	NCC#Cc1cnc2c(c1)N(Cc1c(Cl)cccc1Cl)CCN2 [Example 171, 3-[1-(2,6-Dichlorobenzyl)-1,2,3,4-tetrahydropyrido[2,3-b]pyrazin-7-yl]prop-2-ynylamine, trifluoroacetic acid salt]
4.00 to 5.00	6.00 to 7.00	FC(F)(F)c1ccc(Cl)cc1CN1CCNc2ncc(-c3cc[nH]c3)cc21 [Example 202, 1-[5-Chloro-2-(trifluoromethyl)benzyl]-7-(1H-pyrrol-3-yl)-1,2,3,4-tetrahydro-pyrido[2,3-b]pyrazine]
4.00 to 5.00	5.00 to 6.00	O=C(O)c1cccc(-c2cnc3c(c2)N(Cc2cc(Cl)ccc2C(F)(F)F)CCN3)c1 [Example 196, 3-{1-[5-Chloro-2-(trifluoromethyl)benzyl]-1,2,3,4-tetrahydropyrido[2,3-b]pyrazin-7-yl}benzoic acid]
< 4.00	< 4.00	CC(c1cc(F)c(F)cc1F)N1C(=O)CNc2ncc(I)cc21 (stereo not drawn) [Example 145, 7-Iodo-1-[1-(2,4,5-trifluorophenyl)ethyl]-3,4-dihydro-1H-pyrido[2,3-b]pyrazin-2-one]
4.00 to 5.00	5.00 to 6.00	O=C(NCCN1CCCC1)c1ccc(-c2cnc3c(c2)N(Cc2ccccc2)C(=O)CN3)cc1 [Example 12, 4-(1-Benzyl-2-oxo-1,2,3,4-tetrahydropyrido[2,3-b]pyrazin-7-yl)-N-(2-pyrrolidin-1-yl-ethyl)benzamide, trifluoroacetic acid salt]
< 4.00	4.00 to 5.00	O=C(c1cnc2c(c1)N(Cc1cc(Cl)ccc1Cl)CCN2)N1CCN(c2ccccc2)CC1 [Example 206, [1-(2,5-Dichlorobenzyl)-1,2,3,4-tetrahydropyrido[2,3-b]pyrazin-7-yl]-(4-phenylpiperazin-1-yl)-methanone]
4.00 to 5.00	6.00 to 7.00	COc1ncc(-c2cnc3c(c2)N(Cc2cc(Cl)ccc2Cl)CCN3)cn1 [Example 129, 1-(2,5-Dichlorobenzyl)-7-(2-methoxypyrimidin-5-yl)-1,2,3,4-tetrahydropyrido[2,3-b]pyrazine]
4.00 to 5.00	5.00 to 6.00	CCOC(=O)N1CCC(NC(=O)c2cnc3c(c2)N(Cc2cc(Cl)ccc2Cl)CCN3)CC1 [Example 224, 4-{[1-(2,5-Dichlorobenzyl)-1,2,3,4-tetrahydropyrido[2,3-b]pyrazine-7-carbonyl]amino}piperidine-1-carboxylic acid ethyl ester]
< 4.00	< 4.00	CN1CCN(C(=O)c2ccc(-c3cnc4c(c3)C(O)CCN4)cc2)CC1 (stereo not drawn) [Example 270, [4-(5-Hydroxy-5,6,7,8-tetrahydro-[1,8]naphthyridin-3-yl)phenyl]-(4-methyl-piperazin-1-yl)methanone]
< 4.00	< 4.00	CCNC(=O)c1cccc(-c2cnc3c(c2)N(Cc2ccccc2)C(=O)CN3)c1 [Example 22, 3-(1-Benzyl-2-oxo-1,2,3,4-tetrahydropyrido[2,3-b]pyrazin-7-yl)-N-ethyl-benzamide]
4.00 to 5.00	< 4.00	CC(c1cc(F)c(F)cc1F)N1C(=O)CNc2ncc(-c3ccc(C(=O)N4CCN(C)CC4)cc3)cc21 (stereo not drawn) [Example 146, 7-[4-(4-Methylpiperazine-1-carbonyl)phenyl]-1-[1-(2,4,5-trifluorophenyl)ethyl]-3,4-dihydro-1H-pyrido[2,3-b]pyrazin-2-one, trifluoroacetic acid salt]
4.00 to 5.00	6.00 to 7.00	O=C1CNc2ncc(-c3ccc(NS(=O)(=O)CCN4CCC[C@H]4CN4CCCC4)cc3)cc2N1Cc1cc(F)ccc1F [Example 49]
< 4.00	5.00 to 6.00	O=C(c1cnc2c(c1)N(Cc1cc(Cl)ccc1Cl)CCN2)N1CCC(O)(c2ccc(Cl)cc2)CC1 [Example 208, [4-(4-Chlorophenyl)-4-hydroxypiperidin-1-yl]-[1-(2,5-dichlorobenzyl)-1,2,3,4-tetrahydropyrido[2,3-b]pyrazin-7-yl]methanone]
4.00 to 5.00	5.00 to 6.00	COc1ccccc1N1CCN(C(=O)c2cnc3c(c2)N(Cc2cc(Cl)ccc2Cl)CCN3)CC1 [Example 210, [1-(2,5-Dichlorobenzyl)-1,2,3,4-tetrahydropyrido[2,3-b]pyrazin-7-yl]-[4-(2-methoxyphenyl)piperazin-1-yl]methanone]
< 4.00	5.00 to 6.00	CS(=O)(=O)c1ccc(-c2cnc3c(c2)N(Cc2ccccc2)C(=O)CN3)cc1 [Example 24, 1-Benzyl-7-(4-methanesulfonyl-phenyl)-3,4-dihydro-1H-pyrido[2,3-b]pyrazin-2-one]
< 4.00	5.00 to 6.00	O=C1CNc2ncc(-c3ccc(NS(=O)(=O)CCN4CCCC4)cc3)cc2N1Cc1ccccc1 [Example 45, 2-Pyrrolidin-1-yl-ethanesulfonic acid[4-(1-benzyl-2-oxo-1,2,3,4-tetrahydropyrido[2,3-b]pyrazin-7-yl)phenyl]amide, trifluoroacetic acid salt]
< 4.00	4.00 to 5.00	O=C(c1cnc2c(c1)N(Cc1cc(Cl)ccc1Cl)CCN2)N1CCC(c2noc3cc(F)ccc23)CC1 [Example 221, [1-(2,5-Dichlorobenzyl)-1,2,3,4-tetrahydropyrido[2,3-b]pyrazin-7-yl]-[4-(6-fluorobenzo[d]isoxazol-3-yl)piperidin-1-yl]methanone]
5.00 to 6.00	5.00 to 6.00	CN1CCN(C(=O)c2ccc(-c3cnc4c(c3)C(Oc3cccc(Cl)c3)CCN4)cc2)CC1 (stereo not drawn) [Example 274, {4-[5-(3-Chlorophenoxy)-5,6,7,8-tetrahydro-[1,8]naphthyridin-3-yl]-phenyl}-(4-methylpiperazin-1-yl)methanone]
